Details of series [1]: method as in 2 sources, one per row (each row's own in cited_ref): ref 35 = [35]; PMID 14514352; doi:10.1042/BJ20031350; 35 Veiga S , Henriques S , Santos NC , Castanho MARB ( 2004 ) Putative role of membranes in the HIV fusion inhibitor enfuvirtide mode of action at the molecular level . Biochem J 377 : 107 – 110 . 145 ||| ref 8, 29 = [8]; PMID 18410103; doi:10.1021/ja711247n; 8 Franquelim HG , Loura LM , Santos NC , Castanho MARB ( 2008 ) Sifuvirtide screens rigid membrane surfaces. establishment of a correlation between efficacy and membrane domain selectivity among HIV f || [29]; PMID 21075080; doi:10.1016/j.bbrc.2010.11.013; 29 Matos PM , Freitas T , Castanho MARB , Santos NC ( 2010 ) The role of blood cell membrane lipids on the mode of action of HIV-1 fusion inhibitor sifuvirtide . Biochem Biophys Res Commun 403 : 270 –. The note with it: cited from earlier work.

Another series deals with human erythrocytes. The series can be described thus: Membrane dipole potential assessed by di-8-ANEPPS, erythrocytes. The class given is cell-based. To be noted: up to 6 µM. How it is done:
(§1) Human blood samples were obtained from healthy volunteers, with their previous written informed consent, at the Instituto Português do Sangue (Lisbon, Portugal). This study was approved by the ethics committee of the Faculdade de Medicina da Universidade de Lisboa. Isolation of erythrocytes and PBMC and labeling of these cells with di-8-ANEPPS (Invitrogen, Carlsbad, CA, USA) were performed as described before, [29]. […] They were incubated at 1% hematocrit in buffer supplemented with 0.05% (m/v) Pluronic F-127 (Sigma) and di-8-ANEPPS 10 µM. PBMC were isolated by density gradient using Ficoll-Paque Plus (GE Healthcare, Little Chalfont, UK) and counted in a Neubauer improved hemocytometer. They were incubated at 3000 cells/µL in Pluronic-supplemented buffer with 3.3 µM di-8-ANEPPS. Cells were incubated with the fluorescent probe during 1 h, with gentle agitation, and unbound probe was washed with Pluronic-free buffer on two centrifugation cycles. […] For lipid vesicles labeling, suspensions with […] of total lipid were incubated overnight with di-8-ANEPPS 10 µM, to ensure maximum incorporation of the probe. The maximum concentration of DMSO or DMSO:ethanol in the suspensions was 2.4% (v/v) at 6 µM of peptide or cholesterol. […] The variation of R with the peptide concentration was analyzed by a single binding site model: [drawing 5] […]

Another series has as its system PBMC. The series can be described thus: Membrane dipole potential assessed by di-8-ANEPPS, PBMC. The note with it: up to 6 µM. The class given is cell-based, human. How it is done: as §1
Series [2] can be described thus: Membrane dipole potential assessed by di-8-ANEPPS, labeled lipid vesicles. The note with it: di-8-ANEPPS labeled LUV, control additions (data not shown). The series is classed as physicochemical. The protocol:
as §1

For sifuvirtide, in series [1], the “binding to POPC vesicles” value is “residual binding”.
Take `CC(C)CCC[C@@H](C)[C@H]1CC[C@H]2[C@@H]3CC=C4C[C@@H](O)CC[C@]4(C)[C@H]3CC[C@]12C` [cholesterol]: the “effect on membrane dipole potential” value in the series on human erythrocytes and in the series with PBMC was “not sufficient to induce a detectable membrane potential change” each time. Moreover, the “changes on the dipole potential” value in series [2] is listed as “no changes”.

Source of the values: publication PMC3614957 (PLoS ONE, 2013).
